Measured values taken from ChEMBL document CHEMBL1154672, “Four new cytotoxic oligosaccharidic derivatives of 12-oleanene from Lysimachia heterogenea Klatt” (Bioorg Med Chem Lett, 2009).

Legend:
Format in all cases: functional, cell-based
[1] = system: A549; assay: Cytotoxicity against human A549 cells after 72 hrs; settings: A549, 72 h
[2] = system: A549; assay: Cytotoxicity against human A549 cells after 2 hrs; settings: A549, 2 h
[3] = system: A549; assay: Cytotoxicity against human A549 cells; settings: TDE = time-dependent effect
[4] = system: A549; assay: Cytotoxicity against human A549 cells after 9 hrs; settings: A549, 9 h

| SMILES | IC50 [1] [µM] | IC50 [2] [µM] | Activity [3] | IC50 [4] [µM] |
| --- | --- | --- | --- | --- |
| CC1(C)CC[C@]2(CO)[C@H](O)C[C@]3(C)C(=CC[C@@H]4[C@@]5(C)CC[C@H](O[C@@H]6OC[C@H](O)[C@H](O)[C@H]6O[C@@H]6O[C@H](CO)[C@@H](O)[C@H](O)[C@H]6O[C@@H]6OC[C@@H](O)[C@H](O)[C@H]6O)[C@@](C)(CO)[C@@H]5CC[C@]43C)[C@H]2C1 [HETERGENOSIDE B] | 19.1 | 26.4 | – | – |
| CC1(C)CC[C@]2(CO)[C@H](O)C[C@]3(C)C(=CC[C@@H]4[C@@]5(C)CC[C@H](O[C@@H]6OC[C@H](O)[C@H](O)[C@H]6O[C@@H]6O[C@H](CO)[C@@H](O)[C@H](O)[C@H]6O)[C@@](C)(CO)[C@@H]5CC[C@]43C)[C@H]2C1 [HETEROGENOSIDE A] | 24.5 | – | tde | > 100 |
